Patent US20230242496A1, “SOX11 INHIBITORS FOR TREATING MANTLE CELL LYMPHOMA” (Icahn School of Medicine At Mount Sinai, priority 2020, published 2023)

Legend:
[1] = target: T1, (His)6-SOX11-DBD protein (Homo sapiens, UniProt P35716); assay: Surface Plasmon Resonance (SPR) assay; type: binding; details: immobilized recombinant (His)6-SOX11-DBD, 25° C., compounds 5-40 μM, mean of three experiments
T1 construct: Recombinant (His)6-SOX11-DBD protein was immobilized
T1 sequence (P35716 49-117 limits assumed): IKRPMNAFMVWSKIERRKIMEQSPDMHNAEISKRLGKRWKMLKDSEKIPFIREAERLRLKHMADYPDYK
Protocol: Surface Plasmon Resonance (SPR) Assay
Recombinant (His)6-SOX11-DBD protein was immobilized at a flow rate of 10 μl/min for 180 seconds to the right channel of a gold-coated SCR NiHC200M sensor chip (XanTec bioanalytics) placed in a Reichert 2SPR instrument (Reichert Technologies). The left channel, without immobilized protein, was used as a reference. […] Compounds flowed sequentially from the left to the right channel over the prepared sensor chip surface. 120 seconds association phase with each compound concentration was followed by 300 seconds dissociation phase with the assay buffer alone. The ka, kd, and KD values were determined from the sensograms for at least 3 concentrations of each compound by curve fitting the data using Reichert's TraceDrawer software. The mean KD value for each compound was calculated from three separate experiments.

[2] = tested on: Jeko-1 (SOX11+); assay: Cell viability assay (CellTiter-Blue resazurin reduction); type: cell-based; details: Homo sapiens, JeKo-1, 72 h, JeKo-1 cells; for IC50: 0-40 μM; for viability at 20 µM: 20 μM compound, normalized to 0.2% DMSO
Protocol: Cell viability was determined by a fluorometric resazurin reduction method (CellTiter-Blue; Promega, Madison, Wis.) following the manufacturer's instructions. […] Cells were incubated for 72 hours. After incubation, 20 μl CellTiter-Blue Cell was added to each well and incubated for another 2 hours. […] The number of viable cells in each treated well was calculated, based on the linear least squares regression of the standard curve (OD vs. cell concentration). The viability of cells treated with compounds was normalized to the viability of cells treated with 0.2% Dimethyl sulfoxide (DMSO). Cell counts were confirmed with Trypan Blue Exclusion Assay on the Countess automated cell counter (Invitrogen) according to the manufacturer's specifications. The average and mean standard deviation were calculated from three separate experiments. IC50 values were calculated using the GraphPad Prism (version 4.00) based on a sigmoidal dose-response equation.

Row | Kd [1] [µM] | Compound | IC50 [2] [µM] | viability at 20 µM [2] [%]
1 | 2.22 | Nc1cc(C(=O)Nc2ccc(S(=O)(=O)Nc3ccccc3)cc2)ccc1/C=C\C(=O)O | 9 | 12.4
2 | 2.01 | O=C(Nc1ccc(S(=O)(=O)Nc2ccccc2)cc1)c1ccc2cccnc2c1 | > 20 | 94.2
3 | 78.5 | O=C(Nc1ccc(S(=O)(=O)Nc2ccccc2)cc1)c1ccc2[nH]ncc2c1 | 20 | 47.6
4 | 24.8 | CC1Sc2ccc(C(=O)Nc3ccc(S(=O)(=O)Nc4cc[nH]c(=O)c4)cc3)cc2NC1=O (stereo not drawn) | 18 | 34.8
5 | 19.6 | CC1Sc2ccc(C(=O)Nc3ccc(S(=O)(=O)Nc4ccc(N)cc4)cc3)cc2NC1=O (stereo not drawn) | > 20 | 88
6 | 19 | CC1Sc2ccc(C(=O)Nc3ccc(S(=O)(=O)NC4CCCCC4)cc3)cc2NC1=O (stereo not drawn) | 8 | 30.4
7 | 38.6 | O=C1CSc2ccc(C(=O)Nc3cccc(S(=O)(=O)N4CCCC4)c3)cc2N1 | 20 | 45.4
8 | 29.2 | CC1Sc2ccc(C(=O)Nc3ccccc3S(=O)(=O)Nc3ccccc3)cc2NC1=O (stereo not drawn) | < 20 | 14.2
9 | 0.629 | CC1Sc2ccc(C(=O)Nc3cccc(S(=O)(=O)Nc4cccc(F)c4)c3)cc2NC1=O (stereo not drawn) | 10 | 13.1
10 | 4.24 | CC1Sc2ccc(C(=O)Nc3cccc(S(=O)(=O)Nc4ccc(Cl)cc4)c3)cc2NC1=O (stereo not drawn) | 11.5 | 10.4
11 | 31 | CC1Sc2ccc(C(=O)Nc3ccc(S(=O)(=O)Nc4ccccc4)cc3F)cc2NC1=O (stereo not drawn) | > 20 | 90
12 | 33.2 | CC1Sc2ccc(NC(=O)c3ccc(S(=O)(=O)Nc4ccccc4)cc3)cc2NC1=O (stereo not drawn) | 9 | 33.5
13 | 8.48 | CC1Sc2ccc(C(=O)Nc3cccc(S(=O)(=O)Nc4ccc(F)cc4)c3)cc2NC1=O (stereo not drawn) | > 20 | 55.6
14 | 2.12 | CC1Sc2ccc(C(=O)Nc3cccc(S(=O)(=O)Nc4ccc(C(F)(F)F)cc4)c3)cc2NC1=O (stereo not drawn) | < 20 | 22.2
15 | 2.47 | Cc1cccc(NS(=O)(=O)c2cccc(NC(=O)c3ccc4c(c3)NC(=O)C(C)S4)c2)c1 (stereo not drawn) | 10 | 3.73
16 | 28.7 | CC1Sc2ccc(C(=O)Nc3cccc(S(=O)(=O)Nc4ccccc4F)c3)cc2NC1=O (stereo not drawn) | 13 | 22.7
17 | 3.15 | CC1Sc2ccc(C(=O)Nc3cccc(S(=O)(=O)Nc4cccc(Cl)c4)c3)cc2NC1=O (stereo not drawn) | < 20 | 28.8
18 | 5.07 | CC1Sc2ccc(C(=O)Nc3cccc(S(=O)(=O)Nc4ccc(NC(=O)OC(C)(C)C)cc4)c3)cc2NC1=O (stereo not drawn) | > 20 | 67.4
19 | 6.67 | O=C(Nc1ccc(S(=O)(=O)N2CCCCC2)cc1)c1ccc2c(c1)N(c1ccccc1)C(=O)CS2 |  | 
20 | 5.28 | FC(F)(F)c1cc(OCc2ccccc2)ccc1CNc1ccc2cncnc2c1 |  | 

Further lines, the molecule ahead of its results:

Row | Compound | Kd [1] [µM] | IC50 [2] [µM] | viability at 20 µM [2] [%]
21 | O=C1COc2ccc(C(=O)Nc3ccc(S(=O)(=O)Nc4ccccc4)cc3)cc2N1 | 17.9 | > 20 | 61.1
22 | O=C(Nc1ccc(S(=O)(=O)Nc2ccccc2)cc1)c1ccc2ccccc2c1 | 3.42 | > 20 | 96.3
23 | CC(C)C1Sc2ccc(C(=O)Nc3ccc(S(=O)(=O)Nc4ccccc4)cc3)cc2NC1=O (stereo not drawn) | 1.18 | 2.5 | 1.01
24 | O=C(Nc1ccc(S(=O)(=O)Nc2ccccc2)cc1)c1ccc2c(c1)CCCS2 | 1.62 | 12 | 1.95
25 | O=C1Cc2ccc(C(=O)Nc3ccc(S(=O)(=O)Nc4ccccc4)cc3)cc2N1 | 20.9 | > 20 | 81.5
26 | O=C(Nc1ccc(S(=O)(=O)Nc2ccccc2)cc1)c1ccc2oc(=O)[nH]c2c1 | 8.68 | 20 | 51.8
27 | O=C(Nc1ccc(S(=O)(=O)Nc2ccccc2)cc1)c1ccc2snnc2c1 | 5.65 | 5 to 10 | 34.3
28 | O=C(Nc1ccc(S(=O)(=O)Nc2ccccc2)cc1)c1ccc2ccncc2c1 | 37.9 | 5 | 24.8
29 | CC1Sc2ccc(C(=O)N(c3ccccc3)S(=O)(=O)c3ccc(N)cc3)cc2NC1=O (stereo not drawn) | 7.75 | > 20 | 91.2
30 | CC1Sc2ccc(C(=O)Nc3ccc(S(=O)(=O)NC4CCNCC4)cc3)cc2NC1=O (stereo not drawn) | 100 | > 20 | 80.7
31 | CC1Sc2ccc(C(=O)Nc3ccc(S(=O)(=O)N4CCNCC4)cc3)cc2NC1=O (stereo not drawn) | 17.5 | > 20 | 92.4
32 | CC1Sc2ccc(C(=O)Nc3ccc(S(=O)(=O)Nc4ccc(O)cc4)cc3)cc2NC1=O (stereo not drawn) | 32 | < 20 | 13.7
33 | CC1Sc2ccc(C(=O)Nc3ccc(S(=O)(=O)Nc4ccc(C(F)(F)F)cc4)cc3)cc2NC1=O (stereo not drawn) | 1.57 | > 20 | 63.6
34 | CC1Sc2ccc(C(=O)Nc3ccc(S(=O)(=O)Nc4ccccc4)cc3)cc2N(C)C1=O (stereo not drawn) | 1.95 | 8 | 1.23
35 | CC1Sc2ccc(C(=O)Nc3ccc(S(=O)(=O)NC4CCCC4)cc3)cc2NC1=O (stereo not drawn) | 13.4 | 15 | 36.3
36 | CC1Sc2ccc(C(=O)Nc3ccc(S(=O)(=O)Nc4ccncc4)cc3)cc2NC1=O (stereo not drawn) | 30.9 | > 20 | 103
37 | CC1Sc2ccc(C(=O)Nc3ccc(S(=O)(=O)Nc4ccncn4)cc3)cc2NC1=O (stereo not drawn) | 5.51 | > 20 | 106
38 | CC1Sc2ccc(C(=O)Nc3cccc(S(=O)(=O)NC4CCCC4)c3)cc2NC1=O (stereo not drawn) | 15.4 | 16 | 38.5

Row | Compound | Kd [1] [µM] | IC50 [2] [µM] | viability at 20 µM [2] [%]
39 | CC1Sc2ccc(C(=O)Nc3ccc(S(=O)(=O)Nc4ccccc4C(F)(F)F)cc3)cc2NC1=O (stereo not drawn) | 1.1 | 10 | 8.61
40 | Cc1ccc(NC(=O)c2ccc3c(c2)NC(=O)CS3)cc1S(=O)(=O)Nc1cccc(Cl)c1 | 3.37 | 10 | 26.3
41 | CC1Sc2ccc(C(=O)Nc3cccc(S(=O)(=O)N4CCOCC4)c3)cc2NC1=O (stereo not drawn) | 85 | 8 | 30.8
42 | CC1Sc2ccc(C(=O)Nc3cccc(S(=O)(=O)N(C)C(C)C)c3)cc2NC1=O (stereo not drawn) | 65.9 | 6 | 9.64
43 | CC(C)NS(=O)(=O)c1cccc(NC(=O)c2ccc3c(c2)NC(=O)C(C)S3)c1 (stereo not drawn) | 90.9 | 8 | 17.6
44 | CC1Sc2ccc(C(=O)ONc3ccc(S(=O)(=O)Nc4ccccc4)nc3)cc2NC1=O (stereo not drawn) | 5.07 | > 20 | 90
45 | CC1Sc2ccc(C(=O)Nc3ccc(S(=O)(=O)Nc4ccccc4)s3)cc2NC1=O (stereo not drawn) | 6.63 | > 20 | 57.4
46 | CC1Sc2ccc(C(=O)Nc3ccc(C(=O)Nc4ccccc4)cc3)cc2NC1=O (stereo not drawn) | 13.7 | > 20 | 97.5
47 | CC1Sc2ccc(NC(=O)c3ccc(S(=O)(=O)Nc4ccccc4)c(F)c3)cc2NC1=O (stereo not drawn) | 16.1 | > 20 | 75.8
48 | CC1Sc2ccc(C(=O)Nc3ccc(S(=O)(=O)N(C)c4ccccc4)cc3)cc2NC1=O (stereo not drawn) | 1.47 | 9 | 18
49 | Cc1ccc(NS(=O)(=O)c2cccc(NC(=O)c3ccc4c(c3)NC(=O)C(C)S4)c2)cc1 (stereo not drawn) | 6.08 | 7 | 2.16
50 | CC1Sc2ccc(C(=O)Nc3cccc(S(=O)(=O)NC4CC4)c3)cc2NC1=O (stereo not drawn) | 96.9 | 4 | 11.9
51 | Cc1ccccc1NS(=O)(=O)c1cccc(NC(=O)c2ccc3c(c2)NC(=O)C(C)S3)c1 (stereo not drawn) | 7.42 | 6 | 6.11
52 | CC1Sc2ccc(C(=O)Nc3cccc(S(=O)(=O)Nc4ccccc4C(F)(F)F)c3)cc2NC1=O (stereo not drawn) | 91.7 | > 20 | 73.6
53 | CC1Sc2ccc(C(=O)Nc3cccc(S(=O)(=O)Nc4ccc(N)cc4)c3)cc2NC1=O (stereo not drawn) | 59.7 | > 20 | 59.7
54 | CC1Sc2ccc(C(=O)Nc3cccc(S(=O)(=O)Nc4ccncc4)c3)cc2NC1=O (stereo not drawn) | 21.2 | > 20 | 95.8
55 | CN(Cc1ccc(NC(=O)c2ccc3oc(=O)[nH]c3c2)cc1)c1ccccc1 | 15.6 |  | 
